In patent US8324282B2, “Alkylating agent combinations in the treatment of cancer” (Case Western Reserve University, priority 1999, dated 2012):

Experiments:
[1] = test system: DLD1 cells and HCT116 cells; assay: Potentiation of TMZ cytotoxicity by compound A in tumor cells; assay type: cell-based
Procedure: (§1) On the basis of a similar molecular reaction to MX, (e.g., a primary amine with the carbonyl group of the abasic site), we tested whether a compound (Compound A) would have the ability to bind to AP site generated by TMZ and enhance the killing effect of TMZ. A has a MX-like structure to bind to AP site and also has fluorescence molecules to provide a signal for direct detection of modified AP sites using cellular image. […] In in vitro study, we observed A at non-toxic concentrations (1 mM) sensitized cells to TMZ-cytotoxicity 2-3-fold. In a xenograft model, A (2 mg/kg) combined with TMZ (80 mg/kg) enhanced anti-tumor effect in HCT116 and DLD1, two xenograft tumors with very high resistance to TMZ. Tumor growth delays were 13 days in HCT116 and 12 days in DLD1 treated with the combination of A and TMZ over TMZ alone. Thus, A has a similar effect to MX on interruption of BER and can potentiate chemotherapeutic agents such as alkylating agents. Results are depicted in FIGS. 14-16.

AP sites in DNA = assay: Cellular image of fluorescent A-modified AP sites; assay type: cell-based; conditions: A alone
Procedure: as §1

AP-endonuclease (APE) = assay: AP site cleavage by AP-endonuclease (APE); assay type: biochemical
Procedure: 2. AP sites cleavaged by AP-endonuclease (APE). […] The assay may be performed as follows (see also FIGS. 23A and B):
a. AP site is prepared by replacing single nucleoside with deoxyuridine in duplex oligonucleotides (40 mer).
b. Regular AP site is produced in the duplex oligonucleotides by human uracil DNA glycosylase (LIDGase, Trevigen, Gaithersburg, Md.) to remove the uracil residue.
c. To generate MX-adducted AP site substrates: the UDG-treated duplex oligonucleotides are mixed with 10 mM MX in buffer containing 10 mM KPO4, pH 7.1 and incubated at 37° C. After 30 min, the substrates are recovered by ethanol precipitation, lyophilized, resuspended in water, and stored at −20° C.
d. APE-cleavage reaction: DNA substrates containing either regular AP-sites or chemicalmodified AP sites are incubated with APE (Trevigen, Gaithersburg, Md.) for 30 min and reactants are precipitated with 100% cold ethanol, washed with 70% ethanol and resuspended in TE buffer. The reactants are resolved by denaturing 20% polyacrylamide gel electrophoresis and visualized by silver staining (Silver Staining Kit, Pharmacia Biotech).

[2] = test system: AP sites in calf thymus DNA; assay: Competitive AP site binding assayed by Aldehyde Reactive Probe (ARP)
Text: 1. Analysis of chemical—modified AP Sites assayed by Aldehyde Reactive Probe (ARP). This is a competitive assay to measure the reactivity with AP site between ARP reagent (Dojindo Molecular Technologies Inc., Gaithersburg, Md.) and the screening compounds. ARP and MX have a similar reactivity with AP sites. They react specifically with an aldehyde group that is open ring form of the AP sites. Thus this assay will allow identification of compounds with potential to block AP site repair based on the binding affinity and efficiency to AP sites of screening compounds compared to ARP and MX.
a. AP site standard preparation: AP sites were produced in a calf thymus DNA by heat/acid-buffer solution. Intact calf thymus DNA was added to sodium citrate buffer (10 mM sodium citrate containing 10 mM NaH2PO4 and 10 mM NaCl, pH 5.0) and held at 70° C. for 30 min. The reaction was stopped by chilling rapidly on ice, and the DNA was then precipitated with cold ethanol, washed with 70% ethanol, dried, and resuspended in sterilized distilled water.
b. […] After NC membrane was rinsed with washing buffer containing NaCl (0.26 M), EDTA (1 mM), Tris-HCI (20 mM), and Tween 20 (1%), ARP-AP sites are visualized with ECL reagents (Amersham Corp.) (FIG. 22A) and quantitated by scanning densitometer (FIG. 22B).

NNC(=S)Nc1ccc(-c2c3ccc(=O)cc-3oc3cc(O)ccc23)c(C(=O)O)c1 [Compound A]
cytotoxicity of A alone ([1]; 1 mM): non-toxic | sensitization to TMZ-cytotoxicity ([1]; A at 1 mM): 2-3 fold | fluorescence signal (AP sites in DNA): no visualized fluorescence signal | cleavage of modified AP sites by APE (AP-endonuclease (APE)): refractory to cleavage | binding to AP sites assayed with ARP [2]: able to bind to AP sites
